The species named for series [1] is Danio rerio. Put plainly: Lipid lowering activity in zebrafish embryos at 5 uM by Nile red fat metabolism assay. It is filed as functional, organism-based.
The species entered for series [2] is Danio rerio. The series can be described thus: Downregulation of fasn mRNA expression in zebra fish larvae at lipid lowering activity EC50 after 48 hrs by RT-PCR analysis. It is filed as functional.
The species entered for series [3] is Danio rerio. Put plainly: Toxicity in zebra fish larvae at 5 uM after 48 hrs. It is filed as organism-based. The note with it: zebrafish, in vivo.
Series [4] deals with 3T3-L1. The series can be described thus: Cytotoxicity against mouse 3T3L1 cells at 50 uM after 48 hrs by sulforhodamine B assay. Type of series: cell-based. The note with it: 3t3-l1, 48 h. (In general: The SRB assay estimates cell density from bound dye.)
Series [5] is filed under the species Danio rerio. The series can be described thus: Lipid lowering activity in zebrafish embryos by Nile red fat metabolism assay. Type of series: functional, organism-based.
The subject of series [6] is 3T3-L1. Put plainly: Cytotoxicity against mouse 3T3L1 cells at 50 uM after 24 hrs by sulforhodamine B assay. It is filed as cell-based. Particulars: 3t3-l1, 24 h.
For series [7], the species on record is Danio rerio. Put plainly: Lipid lowering activity in zebrafish embryos 50 uM by Nile red fat metabolism assay. It is filed as functional, organism-based.
The species entered for series [8] is Danio rerio. Put plainly: Toxicity in zebra fish larvae assessed as induction of malformation at 50 uM after 24 to 48 hrs. It is filed as organism-based. Particulars: zebrafish, in vivo.

Activity calls are given as the source filed them. The calls are words filed in the database; no cut-off is given here.

The results in this text go back to ChEMBL document CHEMBL4152195, “Lipid reducing activity and toxicity profiles of a library of polyphenol derivatives” (Eur J Med Chem, 2018).

As for `CCCOc1ccc(NCC(C)C)c2c(=O)c3ccccc3sc12`, the outcome in the series filed under Danio rerio [1] was Active. Further, the result in the series filed under Danio rerio [2] was inactive. Also, the Activity in the series filed under Danio rerio [3], in the series with 3T3-L1 [4] and in the series on 3T3-L1 [6] was 0 to 25% throughout. The EC50 (commonly the concentration giving half of the maximal effect) in the series listed under Danio rerio [5] worked out at 70 nM.
`Oc1ccc(/C=C/c2cc(O)cc(O)c2)cc1` [RESVERATROL]: the result in the series listed under Danio rerio [1] and in the series filed under Danio rerio [7] was Active. The midpoint of the response in the series listed under Danio rerio [5], the EC50, lay at 600 nM.
Take `O=c1c2cc(O)ccc2oc2cccc(O)c12`: the Activity in the series filed under Danio rerio [3] is 0 to 25%; in the series on 3T3-L1 [4] it was 0 to 25%; with 3T3-L1 [6], 0 to 25%; in the series filed under Danio rerio [8] it was “Toxic”.
In the case of `O=c1c2ccccc2oc2ccc(O)c(O)c12`, the result in the series filed under Danio rerio [1] was Active. For the same compound, in the series filed under Danio rerio [2], the outcome was inactive. Further, the Activity in the series listed under Danio rerio [3], in the series on 3T3-L1 [4] and in the series on 3T3-L1 [6] was 0 to 25% in each case. For the same compound, the midpoint of the response in the series listed under Danio rerio [5], the EC50, lay at 130 nM.
For the compound `COC(=O)COc1ccc2c(=O)c3ccc(OCC(=O)OC)cc3oc2c1`, the outcome in the series filed under Danio rerio [1] was Active. For the same compound, the Activity in the series listed under Danio rerio [3], in the series on 3T3-L1 [4] and in the series with 3T3-L1 [6] was 0 to 25% in each case. This compound registered an EC50 in the series filed under Danio rerio [5] of 1670 nM.
On to `COc1cc2oc3c(OC)c4c(cc3c(=O)c2cc1OC)CCC(C)(C)O4`, for which, in the series listed under Danio rerio [1], the outcome was Active. The Activity in the series filed under Danio rerio [3], in the series with 3T3-L1 [4] and in the series with 3T3-L1 [6] was 0 to 25% in each case. For the same compound, the EC50 in the series filed under Danio rerio [5] amounted to 540 nM.
Regarding `COc1cc2oc3ccccc3c(=O)c2cc1OC`, the result in the series filed under Danio rerio [1] was Active. Also, in the series filed under Danio rerio [2], the “fold change (FC)” value is 2. Besides, the Activity in the series listed under Danio rerio [3], with 3T3-L1 [4] and in the series with 3T3-L1 [6] was 0 to 25% each time. Also, the EC50 in the series listed under Danio rerio [5] turned out to be 280 nM.
